Measured values published in patent US4837228A, “Antiinflammatory and antimicrobial compounds and compositions” (The University of Mississippi, priority 1982, dated 1989).
Converted amounts (≈) assume the structure as drawn. “Also recorded” adds a separate entry of the source. Read-outs that look alike come from different tables or passages of the source.

Columns and labels:
[1] = tested on: carrageenan-induced rat paw edema; assay: carrageenan-induced rat paw edema test, intraperitoneal dosing; format: in vivo; design: key to mean difference in volume (MDV): post-injection minus pre-injection mean paw volume; key to group mean difference score: post-injection minus pre-injection paw volume score; details: for percent increase in paw volume / percent of control / mean difference in volume (MDV): Table 1; for group mean difference score / difference of mean scores versus vehicle control (Duncan's test) / difference of mean scores (Duncan's test): Table 3
Description: Two methods were used to assess the antiinflammatory activity of the compounds of the invention: the carrageenan-induced rat paw edema test and, the erythrocyte membrane stabilization assay.
In the Rat Paw Edema Test, the rats utilized were divided into test groups of six to eight animals, weighed and marked so that individual rats could be identified; one hour before testing all rats were given a 700 mg/kg intraperitoneal injection of ethyl urethane in distilled water to render them tractable during testing. A circle was drawn, with a felt-tipped marker, around the hind leg of each rat just above the ankle, and each rat was dosed with a test or control compound by intraperitoneal injection. Negative control groups received the vehicle; while positive control groups received a dose of phenylbutazone (PBZ) as shown in Table II. Test compounds were given at doses of 60, 120, 240 and 480 mg/kg. The positive controls were given at 120 mg/kg and 60 mg/kg. Phenylbutazone was prepared for injection by suspending it in normal saline using Tween 60. The rats were then held in group cages for 30 minutes. The volume of the left hind paw was measured using a mercury displacement pleysmograph. The paw is dipped into the mercury until the mercury touches the line above the ankle. Mercury is then withdrawn until the mercury returns to its original level. The amount of mercury removed is measured in milliliters (ml). The mercury can be measured accurately to 0.01 ml. This left hind paw was then injected with 0.1 ml of a 5% w/v solution of viscous carageenan in normal saline. The injection was given between the metatarsal bones using a 27 gauge needle, and the rats then held in group cages for 3 hours. The volume of the left hind paws was measured again in the pleysmograph. The results were computed in the following manner:
a. A mean is taken for both the pre-injection and post-injection paw volume of each test group.
b. The mean difference in volume (MDV) for each test group is computed by subtracting the pre-injection means from the post-injection mean.
c. The percent of control is computed for each test [formula] The percent of control is used to compare the efficacy of the various drug treatments.
d. The percent increase in paw volume is calculated for each group as: [formula] The percent increase is used to compare the amount of edma observed in one experiment to the amount of edma observed in other experiments.
The data from the rat paw test were further analyzed using a one-way analysis of varience (ANOVA) and Duncan's New Multiple Range Test. The pre-injection score of each animal was subtracted from his post-injection score and an analysis of the different scores were conducted.
The procedure described above was followed. […] The vehicle control used was Tween 60, Arlacel and distilled water prepared without CBC(II).

[2] = tested on: erythrocyte (heat-induced hemolysis); assay: erythrocyte membrane stabilization assay (heat-induced erythrocyte hemolysis); format: cell-based
How it was run: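 In vitro anti-inflammatory screen measuring stabilization of erythrocytes against heat-induced hemolysis, using 40% or 20% RBC suspensions. Compounds dissolved in physiologic saline or suspended in 2% ethanol in saline, pH adjusted to 7.4.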

Mycobacterium smegmatis = assay: MIC, two-fold (broth) serial dilution, M. smegmatis; format: cell-based; details: Mycolicibacterium smegmatis, read-out: MIC
How it was run: (§1)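 Inoculation used a single loop of diluted (1:10) 24-hour broth culture suspended in sterile water, with incubation extended to 48–72 hours for fungi and M. smegmatis. Activity is read qualitatively by well diffusion on agar and quantitatively as MIC via twofold dilution series.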

[3] = inducement of hypothermia in mice (rectal temperature); format: in vivo; details: 100 mg/kg i.p.
Description: CBC (100 mg/kg) was prepared in emulsion form with 3% Tween 60 and 3% Arlacel in normal saline (0.9%) in such a way as to permit a volume of […] of body weight to be injected intraperitoneally into male mice weighing between 32 and 38 grams.
The animals were divided into groups of 10, and body temperatures were recorded with a multichannel Yellow Springs Telethermometer and Thermistor probes. During the experiment, the mice were confined in plastic restraint tubes. They were allowed 45-60 min. for adaption to the restraint tubes and to rectal thermister before a pre-drug baseline temperature reading was taken. Body temperature readings were obtained at 0.5, 1.0, 2.0, 3.0 and 4.0 hrs. post-CBC administration.
The mean (±S.E.) decrease in temperature from the preinjection baseline reading for saline-, vehicle-, and CBC-treated mice were calculated and statistical analyses were conducted using the two-tailed Student's t test.

Saccharomyces cerevisiae = assay: MIC, two-fold (broth) serial dilution, S. cerevisiae; format: cell-based
How it was run: as §1

[4] = Rattus norvegicus, ip, read-out: inhibition of carrageenan-induced rat paw edema

SMILES: CCCCCc1cc(O)c2c(c1)OC(C)(CCC=C(C)C)C=C2 (centres unmarked) [CBC (I), 2-methyl-2(4'methyl-pent-3'-enyl)-5-hydroxy-7-pentyl chromene]
- inhibition at 120 mg/kg [1, 4]: 70%
- inhibition at 240 mg/kg [1, 4]: 86%
- inhibition at 480 mg/kg ([1]; Rattus norvegicus, ip, Table 5, 480 mg/kg i.p.): 100%
- percent increase in paw volume ([1]; 120 mg/kg i.p.): 12.729%
- percent of control ([1]; 120 mg/kg i.p.): 30.000%
- mean difference in volume (MDV) ([1]; 120 mg/kg i.p., paw volume measured in ml): 0.139
- mean difference in volume (MDV) ([1]; 240 mg/kg i.p.): 0.004
- percent increase in paw volume ([1]; 240 mg/kg i.p.): 0.365%
- percent of control ([1]; 240 mg/kg i.p.): 0.927%
- mean difference in volume (MDV) ([1]; 480 mg/kg i.p.): -0.043
- percent increase in paw volume ([1]; 480 mg/kg i.p.): -3.708%
- percent of control ([1]; 480 mg/kg i.p.): -9.189%
- group mean difference score ([1]; 120 mg/kg): 0.139
- difference of mean scores versus vehicle control (Duncan's test) ([1]; 120 mg/kg, ** p 0.01): 0.324
- group mean difference score ([1]; 240 mg/kg): 0.004
- difference of mean scores versus vehicle control (Duncan's test) ([1]; 240 mg/kg, ** p 0.01): 0.458
- group mean difference score ([1]; 480 mg/kg): 0.043
- difference of mean scores versus vehicle control (Duncan's test) ([1]; 480 mg/kg, ** p 0.01): 0.505
- difference of mean scores (Duncan's test) ([1]; CBC 120 mg/kg versus CBC 240 mg/kg, * p 0.05): 0.134
- difference of mean scores (Duncan's test) ([1]; CBC 120 mg/kg versus CBC 480 mg/kg, ** p 0.01): 0.181
- difference of mean scores (Duncan's test) ([1]; CBC 120 mg/kg versus PBZ 120 mg/kg): 0.033
- difference of mean scores (Duncan's test) ([1]; CBC 240 mg/kg versus CBC 480 mg/kg): 0.047
- antiinflammatory effect in words ([1]; i.p.): strong antiinflammatory effects
- significance of difference (ANOVA, Duncan's test) ([1]; i.p., difference scores, listed as CBC): The 120 mg/kg dose of CBC differed significantly from the 240 and 480 mg/kg doses of CBC; also recorded: the 480 mg/kg dose of CBC differed significantly from the 120 mg/kg dosage of PBZ
- inhibition at 12.5 µM ([2]; Erythrocyte, Table 8, 1.25 × 10^-5 M): 55%
- inhibition at 25 µM ([2]; Erythrocyte, Table 8, 2.5 × 10^-5 M, read-out: inhibition of heat-induced erythrocyte hemolysis): 67%
- inhibition at 50 µM ([2]; Erythrocyte, Table 8, 5 × 10^-5 M): 79%
- inhibition at 100 µM ([2]; Erythrocyte, Table 9 Test 2 (40% RBC), 1.0 × 10^-4 M, read-out: percent inhibition of heat-induced erythrocyte hemolysis): 40%
- inhibition at 20 µM ([2]; Erythrocyte, Table 9 Test 2 (40% RBC), 2.0 × 10^-5 M, read-out: percent inhibition of heat-induced erythrocyte hemolysis): 26%
- inhibition at 20 µM ([2]; Erythrocyte, Table 9 Test 3 (20% RBC), 2.0 × 10^-5 M, read-out: percent inhibition of heat-induced erythrocyte hemolysis): 26%
- inhibition at 2 µM ([2]; Erythrocyte, Table 9 Test 3 (20% RBC), 2.0 × 10^-6 M, read-out: percent inhibition of heat-induced erythrocyte hemolysis): 7%
- inhibition at 100 µM ([2]; Erythrocyte, read-out: inhibition of heat-induced erythrocyte hemolysis, Table 8, 1 × 10^-4 M): 98%
- inhibition at 100 µM ([2]; Erythrocyte, read-out: percent inhibition of heat-induced erythrocyte hemolysis, Table 9 Test 3 (20% RBC), 1.0 × 10^-4 M): 37%
- inhibition at 20 µM ([2]; Erythrocyte, 2×10^-5 M, read-out: inhibition of heat-induced red cell hemolysis): 26%
- inhibition at 100 µM ([2]; Erythrocyte, 10^-4 M, read-out: inhibition of heat-induced red cell hemolysis): 35%
- percent inhibition of heat-induced erythrocyte hemolysis ([2]; Table 9 Test 3 (20% RBC), 1.0 × 10^-4 M, 100 µM, listed as Cannabichromene): 33%
- times more protective of red cell membranes than an equivalent amount of PBZ ([2]; actual activity, may have been): 3 to 30 times
- MIC (Mycobacterium smegmatis; 24 h): 12.5 mg/L (≈ 39.7 µM)
- MIC (Mycobacterium smegmatis; 48 h): 25 mg/L (≈ 79.5 µM)
- time of peak hypothermic effect [3]: within the first two hours
- mean (±S.E.) decrease in rectal temperature ([3]; 0.5 hrs): 1.86 ± 0.18 °0
- mean (±S.E.) decrease in rectal temperature ([3]; 1.0 hrs): 2.52 ± 0.26 °0
- mean (±S.E.) decrease in rectal temperature ([3]; 2.0 hrs): 1.93 ± 0.21 °0
- mean (±S.E.) decrease in rectal temperature ([3]; 3.0 hrs): 1.53 ± 0.21 °0
- mean (±S.E.) decrease in rectal temperature ([3]; 4.0 hrs): 1.61 ± 0 °0
- hypothermia, significance versus controls ([3]; listed as CBC): significantly different from saline controls at all readings; also recorded: significantly different from vehicle controls at 0.5, 1.0 and 4.0 hrs
- MIC (Saccharomyces cerevisiae; 48 hr): 25.0 mg/L (≈ 79.5 µM)
- MIC (Saccharomyces cerevisiae; 72 hr): 50.0 mg/L (≈ 159 µM)
- MIC (Saccharomyces cerevisiae; Saccharomyces cerevisiae, 48 h, read-out: MIC): 25 mg/L (≈ 79.5 µM)
- MIC (Saccharomyces cerevisiae; Saccharomyces cerevisiae, 72 h, read-out: MIC): 50 mg/L (≈ 159 µM)
